Data taken from patent US20050244490A1, “Dosing methods for beta-D-2',3'-dideoxy-2',3'-didehydro-5-fluorocytidine antiviral therapy” (priority 2003, published 2005).
“And” between values parts separate entries of the source, which are not always exact repeats. Equal values may be shown once. Read-outs that look alike come from different tables or passages of the source.

Columns and labels:
[1] = target: M184V mutant RT (Human immunodeficiency virus type 1 group M subtype B, UniProt P04585, M771V); experiment: biochemical; assay type: biochemical, HIV-1; conditions: read-out: Ki for mutant RT
[2] = test system: AZT/3TC-resistant HIV-1 recombinant viruses; experiment: microbe, parasite or virus in culture; assay type: cell-based
Description: A panel of 22 viruses was constructed in the HXB2 background using the Protease and RT sequences from clinical isolates to determine Virco Profiling against recombinant clinical isolates (see FIGS. 7a and 7b). Viruses contained 2 to 17 mutations in RT frequently associated with nucleoside resistance, including: M184V, M41L, D67N, T215Y. IC50 values were determined using a high through-put reporter virus assay.

[3] = in vivo; conditions: dog, 15 mg/kg
[4] = Pharmacokinetics in the rhesus monkey; assay type: in vivo
[5] = in vivo; conditions: rat
[6] = target: T1, wild type HIV-RT (Human immunodeficiency virus type 1 group M subtype B, UniProt P04585); experiment: Ki / Km for wild type HIV-RT; assay type: biochemical, HIV-1
T1 construct: The Ki value for β-D-D4FC-TP for wild type HIV-RT

[7] = test system: HepG2 cells; experiment: Mitochondrial toxicity testing (mitDNA, rRNA, lactic acid); assay type: cell-based; conditions: 14 days; for % Change in Lactic Acid: normalized for cytotoxicity
Description: HepG2 cells were incubated for 14 days with the active agent. and mitDNA and rRNA levels were determined by quantitative real-time PCR. The results are tabulated in […]

[8] = test system: plasma HIV-1 RNA; assay type: in vivo; conditions: for reduction of viral load: 48 hours
Description: The study consisted of a double-blind, randomized, placebo-controlled, three-period crossover, dose escalation design in HIV-infected male subjects. Five dose levels (10, 25, 50, 100, and 200 mg) were administered in three cohort studies. Seven days elapsed between the end of one cohort and the start of the next dosing period.

[9] = test system: HIV viral load; experiment: Viral load decline on repeated dosing, β-D-D4FC and competing nucleosides; assay type: in vivo; conditions: 50 mg QD, duration of dosing 10
[10] = Food effect, fed versus fasted crossover (Cohort 4); conditions: for AUC / AUC(0-inf) / CL/F / Cmax / half-life / Tmax: human, plasma, oral, 100 mg, PART B; for AUC: AUC(0-τ); for CL/F: CLtot/F; for half-life: t1/2 λz
[11] = Safety and tolerability of single oral doses
Excerpt: Total of 18 HIV-1 infected males, aged 18-55 years, enrolled, 6 per treatment cohort.

[12] = Cytotoxicity, MTT reduction; assay type: cell-based; conditions: read-out: TC50
Description: Cytotoxicity was measured by reduction of the formazan dye MTT, which is catalyzed by mitochondrial succinate dehydrogenase.

[13] = test system: wild type HIV-1; conditions: read-out: in vitro EC90 for wild type virus; cited from earlier work
[14] = test system: wild type HIV-1; experiment: Inhibition of wild type virus replication in MT-2 cells or PBMCs; assay type: cell-based; conditions: Human immunodeficiency virus 1, MT2; wild type laboratory and clinical isolates of HIV-1
Excerpt: The target concentration is that concentration where most mutant variants tested are suppressed by 90% or more.

[15] = test system: mouse primary bone marrow cells; experiment: Mitochondrial toxicity in primary bone marrow cells; assay type: cell-based; conditions: concentrations <1 mM
[16] = human, in vivo
[17] = pbmc
[18] = clinical; conditions: in vivo
[19] = 100 MG FED, coated tablet after high fat meal

Nc1nc(=O)n(C2C=CC(CO)O2)cc1F [β-D-D4FC, β-D-2′,3′-Didehydro-2′,3′-dideoxy-5-fluorocytidine]
Ki [1]: 300 to 500 nM
target value of parent compound for >90% suppression ([2]; AZT, 3TC and co-resistant variants): 5 µM
IC90 ([2]; Human immunodeficiency virus 1, read-out: Average IC90 for AZT/3TC-R virus): 5500 nM
activity against multi-drug resistant strains ([2]; Q151M or D69S insertions plus at least 5 additional mutations): only weakly active
suppression of most mutant variants tested ([2]; at 5 μM in vitro): ≥ 90%
clinically significant HIV mutant strains inhibited ([2]; including AZT and 3TC resistant variants): more than 80%
reduction in activity ([2]; recombinant viruses with as many as 10 mutations incl. M41L, M184V, D67N, L74V, K70R, T215Y or K219Q): less than 5 fold
AUC at 12 m ([3]; female): 431 µM·h
Cmax at 12 m ([3]; female): 69 µM
AUC at 12 m ([3]; male): 401 µM·h
Cmax at 12 m ([3]; male): 74 µM
plasma half-life ([4]; compared with AZT and 3TC): longer than either AZT or 3TC
clearance of parent ([4]; rhesus monkey, in vivo): low clearance
AUC at 28 d ([5]; 15 mg/kg): 70 µM·h
Cmax at 28 d ([5]; 15 mg/kg): 17 µM
AUC at 28 d ([5]; 45 mg/kg): 161 µM·h
Cmax at 28 d ([5]; 45 mg/kg): 44 µM
Ki [6]: 100 nM
% Change in mitDNA ([7]; 1 μM): 0%
% Change in rRNA ([7]; 1 μM): 0%
% Change in Lactic Acid ([7]; 1 μM): +12%
% Change in mitDNA ([7]; 10 μM): −1.6%
% Change in rRNA ([7]; 10 μM): 0%
% Change in Lactic Acid ([7]; 10 μM): −2%
drop in viral load, subject with mutant virus L41+N103+C181+W210+D215 ([8]; 10 mg): 0.61 log10
reduction of viral load ([8]; 10 mg dose): 0.42±0.2 log10 and 0.42 log10
Change in Plasma HIV-1 RNA ([8]; 10 mg, 12 h): 0.05 ± 0.09 log10
Change in Plasma HIV-1 RNA ([8]; 10 mg, 24 h): −0.12 ± 0.14 log10
Change in Plasma HIV-1 RNA ([8]; 10 mg, 48 h): −0.42 ± 0.20 log10
drop in viral load, subject with mutant virus L41+N103+C181+W210+D215 ([8]; 25 mg): 0.43 log10
Change in Plasma HIV-1 RNA ([8]; 25 mg, 12 h): 0.03 ± 0.09 log10
Change in Plasma HIV-1 RNA ([8]; 25 mg, 24 h): −0.13 ± 0.10 log10
Change in Plasma HIV-1 RNA ([8]; 25 mg, 48 h): −0.34 ± 0.26 log10
Change in Plasma HIV-1 RNA ([8]; 100 mg, 12 h): −0.03 ± 0.08 log10
Change in Plasma HIV-1 RNA ([8]; 100 mg, 24 h): −0.15 ± 0.14 log10
Change in Plasma HIV-1 RNA ([8]; 100 mg, 48 h): −0.44 ± 0.17 log10
reduction of viral load ([8]; 100 mg): 0.44±0.17
Change in Plasma HIV-1 RNA ([8]; 200 mg, 12 h): −0.02 ± 0.24 log10
Change in Plasma HIV-1 RNA ([8]; 200 mg, 24 h): −0.06 ± 0.22 log10
Change in Plasma HIV-1 RNA ([8]; 200 mg, 48 h): −0.27 ± 0.28 log10
Change in Plasma HIV-1 RNA ([8]; 50s mg (solution), 12 h): 0.00 ± 0.00 log10
Change in Plasma HIV-1 RNA ([8]; 50s mg (solution), 24 h): −0.11 ± 0.07 log10
Change in Plasma HIV-1 RNA ([8]; 50s mg (solution), 48 h): −0.44 ± 0.02 log10
Change in Plasma HIV-1 RNA ([8]; 50t mg (tablet), 12 h): 0.05 ± 0.07 log10
Change in Plasma HIV-1 RNA ([8]; 50t mg (tablet), 24 h): −0.08 ± 0.07 log10
Change in Plasma HIV-1 RNA ([8]; 50t mg (tablet), 48 h): −0.46 ± 0.25 log10
average reduction of viral load ([8]; 24 hour time point): 0.11±0.11
mean reduction of viral load after a single oral dose ([8]; all dose levels, up to 48 hours): 0.4±0.2 log10 and 0.42±0.2 log10
mean reduction of viral load after a single oral dose ([8]; various dosage levels, 24 and 48 hours): approximately 40%
Viral Load Decline (log) [9]: −1.67 log
Cmax and AUC values in the fed regimen as fraction of the fasted regimen ([10]; 100 mg coated tablets, high fat meal): less than 1/10
AUC ([10]; 100 MG FASTED, coated tablet): 6110 ng·h/mL
AUC [10, 19]: 542 ng·h/mL
AUC(0-inf) ([10]; 100 MG FASTED, coated tablet): 6170 ng·h/mL
AUC(0-inf) [10, 19]: 643 ng·h/mL
CL/F ([10]; 100 MG FASTED, coated tablet): 478 mL/min
CL/F [10, 19]: 3380 mL/min
Cmax ([10]; 100 MG FASTED, coated tablet): 1160 ng/mL
Cmax [10, 19]: 90 ng/mL
half-life ([10]; 100 MG FASTED, coated tablet): 8.61 h
half-life [10, 19]: 4.38 h
Tmax ([10]; 100 MG FASTED, coated tablet): 1.83 h
Tmax [10, 19]: 2.5 h
serious adverse events ([11]; any dose level): no serious adverse events
tolerability of single doses ([11]; in vivo): well tolerated
CC50 at 96 h ([12]; African green monkey, Vero cells): > 100000 nM
CC50 at 144 h ([12]; PBMCs): > 100000 nM
CC50 at 30 h ([12]; hamster, BHK-21 cells): > 30000 nM
CC50 at 24 h ([12]; human, 293 cells): > 30000 nM
CC50 at 48 h ([12]; human, Huh7 cells): > 30000 nM
CC50 at 72 h ([12]; human, MT-2 cells): > 220000 nM
EC90 [13]: 900 nM and < 1000 nM
IC90 [14]: 855 ± 400 nM
mitochondrial toxicity [15]: not associated with mitochondrial toxicity
Intracellular [Nuc-PPP] in patients (target) [16]: 0.5 µM
Intracellular half life [17]: 13 to 17 h
half-life [18]: 6 to 15 h
